This series in a line: in vitro. The note with it: human, hela cells, % viability.
As for `COc1cc(CNC(=O)N2CCCC(CO)C2)cc(OC)c1OC` (centres unmarked) [CBK156041], the viability at 28.5 h, 10 µM was 91.5%.

As to `O=C(Nc1ccc(Cl)cc1)N1CCCC(CO)C1` (centres unmarked) [CBK156047], the viability at 28.5 h, 10 µM stood at 112%. As to `O=C(NCc1ccc(Cl)cc1)N1CCCC(CO)C1` (centres unmarked) [CBK156053], the viability at 28.5 h, 10 µM is 96.6%. Take `O=C(NCc1ccc(F)cc1)N1CCCC(CO)C1` (centres unmarked) [CBK156056]: the viability at 28.5 h, 10 µM is 102%. With `COc1ccc(CCNC(=O)N2CCCC(CO)C2)cc1` (centres unmarked) [CBK156059], the viability at 28.5 h, 10 µM stood at 87.1%. In the case of `CCN(CC)CCCNC(=O)N1CCCC(CO)C1` (centres unmarked) [CBK156061] it was 103%; in that of `Cc1ccc(NC(=O)N2CCCC(CO)C2)cc1` (centres unmarked) [CBK156065], 77.9%; in that of `O=C(O)C1CCN(C(=O)NCCOc2ccccc2)CC1` [CBK156072], 82.2%. With `COc1ccc(CCNC(=O)N2CCC(C(=O)O)CC2)cc1` [CBK156073], the viability at 28.5 h, 10 µM turned out to be 75.6%. Turning to `CC(C)CCNC(=O)N1CCC(C(=O)O)CC1` [CBK156075], the viability at 28.5 h, 10 µM amounted to 95.3%.

For the compound `CCOC(=O)N1CCC(NC(=O)N2CCC(C(=O)O)CC2)CC1` [CBK156080], the viability at 28.5 h, 10 µM was found to be 95.2%. Next, `CN1CCC(N2CCN(C(=O)NCCCN3CCCC3=O)CC2)CC1` [CBK156105]: 102%; `CN1CCC(N2CCN(C(=O)Nc3cccnc3)CC2)CC1` [CBK156111]: 93.1%; `CCOC(=O)N1CCC(NC(=O)N2CCN(C3CCN(C)CC3)CC2)CC1` [CBK156113]: 92.2%. In the case of `CCN(CC)C(=O)C1CCCN(C(=O)NCc2cc(C)on2)C1` (centres unmarked) [CBK156114] it was 89.5%. Turning to `CCN(CC)C(=O)C1CCCN(C(=O)NCC2COc3ccccc3O2)C1` (centres unmarked) [CBK156116], the viability at 28.5 h, 10 µM was 81.4%.

In the case of `CCN(CC)C(=O)C1CCCN(C(=O)NCc2ccc3c(c2)OCO3)C1` (centres unmarked) [CBK156121], the viability at 28.5 h, 10 µM was 100%. In the case of `CCN(CC)C(=O)C1CCCN(C(=O)NCc2cnc(C)cn2)C1` (centres unmarked) [CBK156122] it was 101%; in that of `CCN(CC)C(=O)C1CCCN(C(=O)NCCN2CCOCC2)C1` (centres unmarked) [CBK156128], 96.1%; in that of `CCN(CC)C(=O)C1CCCN(C(=O)NCCOC)C1` (centres unmarked) [CBK156129], 99.2%.

In the case of `CCN(CC)C(=O)C1CCCN(C(=O)NCc2cc(OC)c(OC)c(OC)c2)C1` (centres unmarked) [CBK156130], the viability at 28.5 h, 10 µM is 86.8%. In the case of `CCN(CC)C(=O)C1CCCN(C(=O)Nc2ccc(N(CC)CC)cc2)C1` (centres unmarked) [CBK156139] it was 94.4%; in that of `CCN(CC)C(=O)C1CCCN(C(=O)NC2CCc3ccccc32)C1` (centres unmarked) [CBK156156], 92.2%.

As for `CCN(CC)C(=O)C1CCCN(C(=O)Nc2cccnc2)C1` (centres unmarked) [CBK156157], the viability at 28.5 h, 10 µM is 96.8%. With `Cc1cc(CNC(=O)N2CCCCC2CO)no1` (centres unmarked) [CBK156160], the viability at 28.5 h, 10 µM came out at 108%. With `O=C(NCC1COc2ccccc2O1)N1CCCCC1CO` (centres unmarked) [CBK156162], the viability at 28.5 h, 10 µM was 103%.

Consider `CSCCCNC(=O)N1CCCCC1CO` (centres unmarked) [CBK156163], for which the viability at 28.5 h, 10 µM was determined as 108%. Take `O=C(NCc1ccc(Cl)c(Cl)c1)N1CCCCC1CO` (centres unmarked) [CBK156164]: the viability at 28.5 h, 10 µM worked out at 113%. Next, `O=C(NCc1cccc(C(F)(F)F)c1)N1CCCCC1CO` (centres unmarked) [CBK156165]: 90.7%; `O=C(NCc1cccc2ccccc12)N1CCCCC1CO` (centres unmarked) [CBK156167]: 99.7%; `O=C(Nc1ccc(Cl)cc1)N1CCCCC1CO` (centres unmarked) [CBK156179]: 99.5%. In the case of `CC(=O)Nc1cccc(NC(=O)N2CCCCC2CO)c1` (centres unmarked) [CBK156181] it was 101%; in that of `CCc1ccc(CNC(=O)Cn2nnc(-c3ccc(CN4CCC(C)CC4)nc3SC)n2)cc1` [CBK156205T], 90.3%. Next, `CN1CCC(N2CCN(C(=O)c3ccc(-c4ccc(OC(F)(F)F)cc4)nc3)CC2)CC1` [CBK156206]: 92.8%; `O=C(NCC1COc2ccccc2O1)c1ccc(-c2ccc(OC(F)(F)F)cc2)nc1` (centres unmarked) [CBK156214]: 88.3%. For the compound `CSCCCNC(=O)c1ccc(-c2ccc(OC(F)(F)F)cc2)nc1` [CBK156216], the viability at 28.5 h, 10 µM amounted to 95%. Consider `NS(=O)(=O)c1ccc(CNC(=O)c2ccc(-c3ccc(OC(F)(F)F)cc3)nc2)cc1` [CBK156246], for which the viability at 28.5 h, 10 µM was 84.1%.

Consider `N#Cc1ccc(CNC(=O)c2ccc(-c3ccc(OC(F)(F)F)cc3)nc2)cc1` [CBK156249], for which the viability at 28.5 h, 10 µM came out at 87.2%. For the compound `Cc1cc(Cl)ccc1CNC(=O)c1ccc(-c2ccoc2)nc1` [CBK156254], the viability at 28.5 h, 10 µM was determined as 101%. In the case of `CSCCCNC(=O)c1ccc(-c2ccoc2)nc1` [CBK156262] it was 99%. In the case of `O=C(NCc1cccs1)c1ccc(-c2ccoc2)nc1` [CBK156269] it was 106%. In the case of `O=C(NCc1cccnc1)c1ccc(-c2ccoc2)nc1` [CBK156275] it was 89.6%.

With `CN1CCN(C(=O)c2ccc(-c3ccoc3)nc2)CC1` [CBK156280], the viability at 28.5 h, 10 µM came to 100%. Consider `CC(C)c1ccc(CNC(=O)c2ccc(-c3ccoc3)nc2)cc1` [CBK156292], for which the viability at 28.5 h, 10 µM was determined as 91.4%. For `CN(C)S(=O)(=O)Nc1ccc(-c2nnn[nH]2)cc1` [CBK156312], the viability at 28.5 h, 10 µM turned out to be 96.2%.

Take `CN(C)S(=O)(=O)Nc1ccc2[nH]ccc2c1` [CBK156321]: the viability at 28.5 h, 10 µM came to 92.2%. Consider `O=S(=O)(Nc1ccc2[nH]ccc2c1)c1c(Cl)cc(C(F)(F)F)cc1Cl` [CBK156328], for which the viability at 28.5 h, 10 µM turned out to be 75.5%. As for `CCOC(=O)CCCNC(=O)N1CCCC(CO)C1` (centres unmarked) [CBK156344], the viability at 28.5 h, 10 µM amounted to 102%. Next, `CN1CCN(CCCNC(=O)N(CCC#N)C2CCCCC2)CC1` [CBK156346]: 112%; `Cc1cnc(CNC(=O)N(CCC#N)C2CCCCC2)cn1` [CBK156352]: 96.5%. As for `N#CCCN(C(=O)NCc1cccc2ccccc12)C1CCCCC1` [CBK156353], the viability at 28.5 h, 10 µM worked out at 89%. In the case of `N#CCCN(C(=O)NCc1cccnc1)C1CCCCC1` [CBK156355], the viability at 28.5 h, 10 µM stood at 104%.

For the compound `N#CCCN(C(=O)NCCN1CCOCC1)C1CCCCC1` [CBK156357], the viability at 28.5 h, 10 µM came to 107%. In the case of `COc1cc(CNC(=O)N(CCC#N)C2CCCCC2)cc(OC)c1OC` [CBK156359], the viability at 28.5 h, 10 µM was 98.1%. `N#CCCN(C(=O)Nc1ccc2[nH]ccc2c1)C1CCCCC1` [CBK156362]: the viability at 28.5 h, 10 µM stood at 97.9%. Next, `N#CCCN(C(=O)Nc1ccccc1Cl)C1CCCCC1` [CBK156366]: 86.8%. Next, `CC(=O)Nc1cccc(NC(=O)N(CCC#N)C2CCCCC2)c1` [CBK156367]: 91.9%; `N#CCCN(C(=O)NCc1c(Cl)cccc1Cl)C1CCCCC1` [CBK156371]: 88%. In the case of `N#CCCN(C(=O)NCCOc1ccccc1)C1CCCCC1` [CBK156374], the viability at 28.5 h, 10 µM was 94.9%. On to `COc1ccc(CCNC(=O)N(CCC#N)C2CCCCC2)cc1` [CBK156375], for which the viability at 28.5 h, 10 µM was determined as 100%. In the case of `CCN(CC)CCCNC(=O)N(CCC#N)C1CCCCC1` [CBK156377], the viability at 28.5 h, 10 µM was 95%. Next, `COc1cc(NC(=O)N(CCC#N)C2CCCCC2)cc(OC)c1OC` [CBK156380]: 94.4%; `Cc1ccc(NC(=O)N(CCC#N)C2CCCCC2)cc1` [CBK156381]: 106%; `CC(NC(=O)N(CCC#N)C1CCCCC1)c1ccccc1` (centres unmarked) [CBK156382]: 97.2%. Next, `N#CCCN(C(=O)NC1CCc2ccccc21)C1CCCCC1` (centres unmarked) [CBK156383]: 95.5%; `CN1CCN(CCCNC(=O)N2CCN(c3ccc(F)cc3)CC2)CC1` [CBK156386]: 91.2%; `O=C(NCC1COc2ccccc2O1)N1CCN(c2ccc(F)cc2)CC1` (centres unmarked) [CBK156387]: 92.8%. In the case of `O=C(NCC1CCCCC1)N1CCN(c2ccc(F)cc2)CC1` [CBK156397] it was 86.9%; in that of `O=C(NCC(c1ccccc1)c1ccccc1)N1CCN(c2ccc(F)cc2)CC1` [CBK156415], 97%; in that of `O=C(NCCOc1ccccc1)N1CCN(c2ccc(F)cc2)CC1` [CBK156416], 92.7%. Consider `CCN(CC)CCCNC(=O)N1CCN(c2ccc(F)cc2)CC1` [CBK156419], for which the viability at 28.5 h, 10 µM is 88.6%.

As to `CSCCCNC(=O)N1CCN(c2cc(C(F)(F)F)ccn2)CC1` [CBK156433], the viability at 28.5 h, 10 µM is 92.3%. In the case of `O=C(NCc1cccc(C(F)(F)F)c1)N1CCN(c2cc(C(F)(F)F)ccn2)CC1` [CBK156435] it was 102%; in that of `COCC(=O)N1CCC2(CC1)CC(=O)c1cc(Cl)cc(Cl)c1O2` [CBK156440], 84.1%. Next, `O=C1CC2(CCN(C(=O)c3ccccn3)CC2)Oc2ccc(Br)cc21` [CBK156443]: 93.7%; `CC(=O)NCC(=O)N1CCC2(CC1)CC(=O)c1cc(Br)ccc1O2` [CBK156447]: 106%. On to `COc1ccc2c(c1)OC1(CCN(C(=O)c3ccc(C(C)=O)cc3)CC1)CC2=O` [CBK156457], for which the viability at 28.5 h, 10 µM stood at 94.2%. Take `O=C1NCC(C(=O)N2CCC3(CC2)CC(=O)c2cc(Br)ccc2O3)N1` (centres unmarked) [CBK156475]: the viability at 28.5 h, 10 µM worked out at 87.7%. Next, `O=C1NC(=O)C(CC(=O)N2CCC3(CC2)CC(=O)c2cc(Cl)ccc2O3)N1` (centres unmarked) [CBK156485]: 107%; `CCCCC(=O)N1CCC2(CC1)CC(=O)c1ccc(OCc3ccccc3)c(C)c1O2` [CBK156493]: 104%. Next, `Cc1cnc(C(=O)N2CCC3(CC2)CC(=O)c2cc(Cl)cc(Cl)c2O3)cn1` [CBK156502]: 89.7%.

Take `Cc1noc(C)c1C(=O)N1CCC2(CC1)CC(=O)c1ccc(OCc3ccccc3)c(C)c1O2` [CBK156506]: the viability at 28.5 h, 10 µM came to 97.4%. In the case of `O=C1CC2(CCN(C(=O)C3CCOC3)CC2)Oc2c(Br)cc(Br)cc21` (centres unmarked) [CBK156512] it was 96.4%.

These data come from publication PMC12040169 (PLOS Biology, 2025).
